The values below come from paper PMC5636120, “Biochemical characterization of recombinant influenza A polymerase heterotrimer complex: Polymerase activity and mechanisms of action of nucleotide analogs” (PLoS ONE, 2017).

What is called EC50 is the concentration giving half of the maximal effect.

The target in data set [1] is recombinant influenza polymerase trimer (RdRp) (Influenza A virus, UniProt P03431). The data set is described as follows: Mechanism of action, gel-based incorporation assay with miniHA template and capped 33P-m7G167 primer. It counts as biochemical, Influenza A virus H1N1 strain A/PR/8. Particulars: 500 μM analog in place of GTP, 500 μM each CTP, UTP, ATP, miniHA template. As for the experimental part: (§1) The PA, PB1 and PB2 genes of Influenza A virus RNA polymerase were amplified by reverse-transcription and PCR from H1N1 strain A/PR/8. The 3x FLAG tag was added to the N-terminal full-length PA and cloned into pFastBac1 vector (Life Technologies, Carlsbad, CA). Full-length PB1 and PB2 genes were cloned into pFastBac Dual vector (Life Technologies) as described previously. Recombinant baculovirus was generated for PA and PB1/PB2 using Sf9 cells and was used to co-infect Trichopulsia ni cells (Hi5) at 1.5 x 10^6 cells/ml in ESF-921 medium (Expression Systems, David, CA). Purification and biochemical characterization of the polymerase heterotrimer was described previously. The purified polymerase complex was stored at -80°C prior use.
recombinant influenza polymerase trimer (RdRp), sequence (P03431 whole entry, looked up): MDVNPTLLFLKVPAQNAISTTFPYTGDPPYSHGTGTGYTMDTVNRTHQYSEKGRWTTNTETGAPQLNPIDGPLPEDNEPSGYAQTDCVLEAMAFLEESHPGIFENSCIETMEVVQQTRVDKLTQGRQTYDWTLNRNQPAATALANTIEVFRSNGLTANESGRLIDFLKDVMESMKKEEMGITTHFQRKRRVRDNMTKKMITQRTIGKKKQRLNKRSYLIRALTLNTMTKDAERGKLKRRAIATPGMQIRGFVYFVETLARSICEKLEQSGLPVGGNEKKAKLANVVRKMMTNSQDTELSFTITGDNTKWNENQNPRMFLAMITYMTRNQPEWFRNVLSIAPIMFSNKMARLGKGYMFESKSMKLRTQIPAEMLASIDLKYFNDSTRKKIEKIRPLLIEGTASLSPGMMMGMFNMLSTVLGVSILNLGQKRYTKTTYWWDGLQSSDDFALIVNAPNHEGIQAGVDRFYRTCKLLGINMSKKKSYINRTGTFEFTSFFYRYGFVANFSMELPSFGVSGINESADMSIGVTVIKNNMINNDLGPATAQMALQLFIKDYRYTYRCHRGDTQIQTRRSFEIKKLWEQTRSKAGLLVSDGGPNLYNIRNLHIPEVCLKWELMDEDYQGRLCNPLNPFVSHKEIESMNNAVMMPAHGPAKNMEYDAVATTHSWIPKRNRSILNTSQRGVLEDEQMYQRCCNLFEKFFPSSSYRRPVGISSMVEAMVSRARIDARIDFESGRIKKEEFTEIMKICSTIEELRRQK
Recombinant influenza polymerase trimer (80 ng/μL) was incubated with 595 nM ^33P-m^7G^167 and 1.6 μM miniHA template in buffer containing 50 mM HEPES (pH 7.8), 2 mM DTT, 5 mM magnesium acetate, 0.2 U/mL RNasin for 60 minutes at 37°C. After the endonuclease cleavage of ^33P-m^7G^167 was completed, 20 μM of endonuclease inhibitor 4-(1,4-bis(4-chlorobenzyl)piperidin-4-yl)-2,4-dioxobutanoic acid was added to the reaction mixture. The polymerase reactions were initiated by adding nucleotide analogs and three other natural NTPs (all at final concentrations of 500 μM) and 10 μCi α-^33P-ATP. Reactions were incubated at 37°C for 30 minutes and quenched with equal volumes of gel loading dye containing 90% formamide, 100 mM EDTA, 0.1% (w/v) bromphenol blue and xylene cyanol. Reactions were analyzed by electrophoresis (25% polyacrylamide, 8 M urea). The dried gels were exposed to phosphorimager screen and visualized using the Typhoon Trio and ImageQuant Software (GE, Piscataway, NJ.)

Data set [2] deals with concentrated cRNP with endogenous viral template (Influenza A virus, UniProt P03431). Particulars: 500 μM natural NTPs and/or analogs, 60 minutes.
concentrated cRNP with endogenous viral template, sequence (P03431 whole entry, looked up): as above
For data set [3], the system named is influenza A (A/Hong Kong/8/68). In words: Antiviral activity (virus-induced cytopathic effect, CellTiterGlo) in infected MDCK cells. It counts as cell-based, Influenza A virus A/Hong Kong/8/68. The settings on record: for EC50: MDCK cells infected with Influenza A/HK/68, MOI 0.005, five day incubation, nucleoside form. On the procedure: MDCK cells were seeded in 96-well plates at a density of 1 × 10^4 cells per well in 100 μL of MEM medium supplemented with 10% FBS. Medium was removed the next day and the cells were washed twice with 100 μL MEM medium supplemented with 0.125% (w/v) BSA (MEM-BSA). Serially diluted compounds were added to cells in 150 μL MEM-BSA and cells were infected with influenza A (A/Hong Kong/8/68, Advanced Biotechnologies Inc.) at MOI 0.005 in 50 μL of MEM-BSA medium supplemented with 8 μg/mL trypsin (Worthington, Lakewood, NJ). After five day incubation at 37°C, virus-induced cytopathic effect was determined by adding CellTiterGlo viability reagents (Promega, Madison, WI) and the luminescence signal was measured using Perkin Elmer’s Envision MultiLabel plate reader (Santa Clara, CA). The cytotoxicity of compounds in MDCK cells was determined in replicate plates with the same setup as used in the antiviral assay, except no virus was added to the cell culture. EC50 and CC50 values were calculated by non-linear regression analysis using GraphPad Prism (La Jolla, CA) and four parameter logistic sigmoidal dose-response (variable slope) equations.
A general note: Cytopathic effects are the visible damage that an infection or toxin causes in cultured cells.

A further data set is described as follows: in vitro. The settings on record: dog.
Data set [4] concerns the target T1, recombinant influenza RdRp (PA/PB1/PB2 heterotrimer) (Influenza A virus, UniProt P03431). The data set is described as follows: Apparent binding affinity (Kapp), single nucleotide incorporation. It counts as biochemical, Influenza A virus H1N1 strain A/PR/8. Particulars: for Selectivity factor, Kapp(analog):Kapp(GTP): natural GTP over analog; for Kapp: SNI-G template, ApG primer, 37°C, 35 minutes, concentration converting half of 9-mer to 10-14-mer. As for the experimental part:
as §1
The apparent binding affinity Kapp was determined for GTP and T-1106-TP as described by Jin et al. 250 nM recombinant polymerase trimer was pre-incubated with 2.5 μM SNI-G template, 1 μM SNI-Pro promoter, and 400 μM ApG primer in a buffer containing 40 mM Tris-HCl (pH 7.0), 20 mM NaCl, 5 mM MgCl2, 2 mM DTT, and 0.2 U/μL RNasin at 37°C. The reaction was initiated by adding a mixture of 25 μM CTP, 25 μM UTP, 25 μCi of α-^33P-UTP, and various concentrations of GTP or analogs. Reactions proceeded for 35 minutes and were quenched with equal volumes of loading dye containing 90% formamide, 100 mM EDTA, 0.1% (w/v) amount of bromphenol blue and xylene cyanol. The products were separated by 25% PAGE, visualized, and quantified by autoradiography as described above. Data were fit with Eq I, where %Max and %Min are respectively the ratios of (10+11+12+13+14-mer)/ (9+10+11+12+13+14-mer) at the highest nucleotide concentration and the baseline level of mis-incorporation of CTP/UTP in the absence of the correct nucleotide (GTP) encoded by the template sequence, Kapp is the concentration at which half of the reactant (9-mer) is converted to products (10+11+12+13+14-mers), and S is the concentration of nucleotide analog.
Y=(%Max−%Min)⋅S/Kapp+S+%Min (I)

Data set [5] addresses T1, recombinant influenza RdRp (PA/PB1/PB2 heterotrimer). On the set-up: method as in PMID 23874596. The settings on record: cited from earlier work.
Data set [6] deals with viral ribonucleoprotein complexes from detergent-disrupted Influenza A/PR/8/34 (Influenza A virus, UniProt P03431). In words: Influenza polymerase inhibition (IC50) filter binding assay, ApG-primed RNA synthesis by cRNP. Particulars: vs T-705-RTP.
viral ribonucleoprotein complexes from detergent-disrupted Influenza A/PR/8/34, sequence (P03431 whole entry, looked up, one chain of several): as the sequence (P03431 whole entry, looked up) above
The mark [7] stands for this setting: Influenza A virus, MDCK, 120 h, read-out: EC50.

Structures are written as SMILES. Several values for one entry are separate records, joined by “and”; a condition that tells them apart may be missing. Equal values may be shown once. Read-outs that look alike come from different tables or passages of the source.

T1 sequence (P03431 whole entry, looked up, one chain of several): as the sequence (P03431 whole entry, looked up) above

As to `N#CC1(COP(=O)(O)OP(=O)(O)OP(=O)(O)O)OC(n2cnc3c(=O)[nH]c(N)nc32)C(F)C1O` (stereo not drawn) [4’CN-FdGTP], the “Mode of action on RNA synthesis” value in data set [1] is recorded as “direct chain-termination”.

On to `Nc1nc2c(ncn2[C@@H]2O[C@H](COP(=O)(O)OP(=O)(O)OP(=O)(O)O)[C@@H](O)[C@H]2F)c(=O)[nH]1` [2’FdGTP], for which, in data set [2], the “Incorporation / mode of action in cRNP reactions” value (shortened to “Incorporation / mode of action”) is “stable incorporation”. For the same compound, the “Mode of action on RNA synthesis” value in data set [1] is on record as “stably incorporated into RNA”.

`NC(=O)c1nccn([C@@H]2O[C@H](CO)[C@@H](O)[C@H]2O)c1=O` [T-1106]: in data set [3] (setting [7]), the EC50 turned out to be 27 ± 6 µM. Besides, in “in vitro”, the CC50 at 5 day was over 100 µM.

In the case of `Nc1nc2c(ncn2[C@@H]2O[C@H](COP(=O)(O)OP(=O)(O)OP(=O)(O)O)[C@@H](O)[C@H]2O)c(=O)[nH]1` [GTP], in data set [4], the “Selectivity factor, Kapp(analog):Kapp(GTP)” value turned out to be 1. For the same compound, the “Kapp, reported value” in data set [5] is on record as 8 nM.

For `C=C[C@]1(CO)O[C@@H](n2cnc3c(=O)[nH]c(N)nc32)[C@H](F)[C@@H]1O` [4’vinyl-FdG], the EC50 came to 110 µM in data set [3] (Influenza A virus, MDCK, 120 h) and 116 ± 48 µM in data set [3] (read-out: EC50). The CC50 at 5 day in the data set “in vitro” is over 200 µM.

On to `NC(=O)c1nccn([C@@H]2O[C@H](COP(=O)(O)OP(=O)(O)OP(=O)(O)O)[C@@H](O)[C@H]2O)c1=O` [T-1106-TP], for which the “Fold more potent (lower enzymatic IC50) than T-705-RTP in the biochemical assay” value in data set [6] came out at 3. Further, in data set [4] (compared with reported selectivity), the “Times lower selectivity factor than the reported selectivity over T-705-TP” value is given as 6.3. Further, the “Selectivity factor, Kapp(analog):Kapp(GTP)” value in data set [4] was 3 and 2.9. Moreover, the “Incorporation / mode of action” value in data set [2] is “incorporation and chain termination”. The “Fold less potent than T-705 in the antiviral assays” value in data set [3] (vs T-705, MDCK cells) worked out at 12. Further, the “Mode of action on RNA synthesis” value in data set [1] is recorded as “delayed chain termination”.

As for `N#C[C@]1(CO)O[C@@H](n2cnc3c(=O)[nH]c(N)nc32)[C@H](F)[C@@H]1O` [4’CN-FdG], the EC50 in data set [3] (setting [7]) was over 200 µM. Also, the CC50 at 5 day in “in vitro” was over 200 µM.

Consider `Nc1nc2c(ncn2[C@@H]2O[C@H](CO)[C@@H](O)[C@H]2F)c(=O)[nH]1` [2’FdG, 2’-deoxy, 2’F guanosine], for which the EC50 in data set [3] (Influenza A virus, MDCK, 120 h) was 18 µM; in data set [3] (read-out: EC50), 19 ± 5 µM. In “in vitro”, this compound displayed a CC50 at 5 day of over 200 µM.

For `NC(=O)c1nc(F)c[nH]c1=O` [T-705], the EC50 in data set [3] (Influenza A virus, MDCK, 120 h) came to 2.2 µM; in data set [3] (read-out: EC50) it was 2.4 ± 1.1 µM. Moreover, the CC50 in the data set “in vitro” was over 100 µM.

As to `C=C[C@]1(COP(=O)(O)OP(=O)(O)OP(=O)(O)O)O[C@@H](n2cnc3c(=O)[nH]c(N)nc32)[C@H](F)[C@@H]1O` [4’vinyl-FdGTP], the Kapp in data set [4] is 29 µM; in data set [4] (listed as 4'vinyl-FdGTP) it was 29.1 µM. For the same compound, the “Selectivity factor, Kapp(analog):Kapp(GTP)” value in data set [4] came out at 3096. For the same compound, in data set [1], the “Mode of action on RNA synthesis” value is recorded as “direct chain-termination”.

Consider `NC(=O)c1nc(F)cn([C@@H]2O[C@H](COP(=O)(O)OP(=O)(O)OP(=O)(O)O)[C@@H](O)[C@H]2O)c1=O` [T-705-RTP], for which the “Incorporation / mode of action” value in data set [2] is given as “neither incorporation”. The “Mode of action on RNA synthesis” value in data set [1] is given as “delayed chain-termination”.
